Our source for the IC50 values is US7998952B2, “Thiolactams and uses thereof” (Millennium Pharmaceuticals, Inc., priority 2008, dated 2011).

The assay addresses T1, recombinant human PLK1[2-369]T210D (Homo sapiens, UniProt P53350, T210D).
T1 construct: recombinant human PLK1[2-369]T210D; Smt (SUMO) fusion partner (N, cleaved yes); host or cells: E. coli
Put plainly: PLK1 DELFIA Kinase Assay. The assay is classed as biochemical. Conditions: 50 μM ATP, 2 μM peptide substrate, 0.3 nM enzyme, 90 minutes at room temperature. As to the method:
Recombinant human PLK1 was expressed in E. coli as an N-terminal Smt fusion protein using a proprietary vector (pSGX4) by Structural Genomics (SGX). The fusion partner was removed through cleavage with Ulp1 after an initial purification using a Ni2+ affinity column.
PLK1 DELFIA® Kinase Assay
The enzymatic reaction mixture, with or without PLK inhibitors, was incubated 90 minutes at room temperature before termination with 50 μL of STOP buffer containing 1% BSA, 0.05% Tween20, 100 mM EDTA. 50 μL of the stopped enzyme reaction mixture was transferred to a Neutravidin-coated 384-well plate (Pierce) and incubated at room temperature for 60 minutes. […] The wells were washed and then the bound europium was liberated using 50 μL of Enhancement Solution (Perkin Elmer). Quantification of europium was done using a Pherastar (BMG Labtech)

T1 sequence (P53350 2-369 T210D): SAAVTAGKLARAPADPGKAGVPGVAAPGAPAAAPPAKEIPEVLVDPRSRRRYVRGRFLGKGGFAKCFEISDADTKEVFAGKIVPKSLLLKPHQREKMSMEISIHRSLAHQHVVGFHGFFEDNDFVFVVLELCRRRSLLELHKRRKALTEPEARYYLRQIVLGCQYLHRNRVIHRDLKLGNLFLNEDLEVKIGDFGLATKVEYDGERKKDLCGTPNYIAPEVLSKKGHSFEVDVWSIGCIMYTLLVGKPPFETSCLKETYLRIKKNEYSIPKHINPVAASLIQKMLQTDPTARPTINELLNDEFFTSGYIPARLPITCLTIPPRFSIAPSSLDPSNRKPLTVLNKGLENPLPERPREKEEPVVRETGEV

Take `S=C1Cc2cnc(Nc3ccc(N4CCOCC4)nc3)nc2-c2ccc(Cl)cc2N1` [Compound I-13, 9-chloro-2-[(6-morpholin-4-ylpyridin-3-yl)amino]-5,7-dihydro-6H-pyrimido[5,4-d][1]benzazepine-6-thione]: the IC50 was less than 5 nM.
`Cc1nc(N(C)C2CCN(C)C2)ccc1Nc1ncc2c(n1)-c1ccc(C(F)(F)F)cc1NC(=S)C2` (stereo not shown) [Compound I-95, 2-({2-methyl-6-[methy(1-methylpyrrolidin-3-yl)amino]pyridin-3-yl}amino)-9-(trifluoromethyl)-5,7-dihydro-6H-pyrimido[5,4-d][1]benzazepine-6-thione]: the 50% inhibitory concentration (IC50) is less than 5 nM.
Then `CCc1ncc(CCCN(C)C)cc1Nc1ncc2c(n1)-c1ccc(Cl)cc1NC(=S)C2` [Compound I-38, 9-chloro-2-({5-[3-(dimethylamino)propyl]-2-ethylpyridin-3-yl}amino)-5,7-dihydro-6H-pyrimido[5,4-d][1]benzazepine-6-thione], with less than 5 nM; and `Cc1nc(N2CCCC2)ccc1Nc1ncc2c(n1)-c1ccc(C(F)(F)F)cc1NC(=S)C2` [Compound I-110, 2-[(2-methyl-6-pyrrolidin-1-ylpyridin-3-yl)amino]-9-(trifluoromethyl)-5,7-dihydro-6H-pyrimido[5,4-d][1]benzazepine-6-thione], with 5 to 25 nM; and `Cc1ncc(CCN2CCC(N(C)C)CC2)cc1Nc1ncc2c(n1)-c1ccc(C(F)(F)F)cc1NC(=S)C2` [Compound I-52, 2-[(5-{2-[4-(dimethylamino)piperidin-1-yl]ethyl}-2-methylpyridin-3-yl)amino]-9-(trifluoromethyl)-5,7-dihydro-6H-pyrimido[5,4-d][1]benzazepine-6-thione], with less than 5 nM.
For the compound `Cc1nc(NC2CCNCC2)ccc1Nc1ncc2c(n1)-c1ccc(Cl)cc1NC(=S)C2` [Compound I-85, 9-chloro-2-{[2-methyl-6-(piperidin-4-ylamino)pyridin-3-yl]amino}-5,7-dihydro-6H-pyrimido[5,4-d][1]benzazepine-6-thione], the half-inhibitory concentration (IC50) was less than 5 nM.
In the case of `CN(C)CCCc1cc2c(cc1Cl)NC(=S)Cc1cnc(Nc3cccnc3)nc1-2` [Compound I-33, 9-chloro-10-[3-(dimethylamino)propyl]-2-(pyridin-3-ylamino)-5,7-dihydro-6H-pyrimido[5,4-d][1]benzazepine-6-thione], the half-inhibitory concentration (IC50) fell in the range of 5 to 25 nM.
In the case of `Cc1ccc2c(c1)NC(=S)Cc1cnc(Nc3cc(CCCN(C)C)cnc3C)nc1-2` [Compound I-60, 2-({5-[3-(dimethylamino)propyl]-2-methylpyridin-3-yl}amino)-9-methyl-5,7-dihydro-6H-pyrimido[5,4-d][1]benzazepine-6-thione] it was less than 5 nM; in that of `Cc1ncc(CCCCN(C)C)cc1Nc1ncc2c(n1)-c1ccc(C(F)(F)F)cc1NC(=S)C2` [Compound I-12, 2-({5-[4-(dimethylamino)butyl]-2-methylpyridin-3-yl}amino)-9-(trifluoromethyl)-5,7-dihydro-6H-pyrimido[5,4-d][1]benzazepine-6-thione], less than 5 nM; in that of `Nc1ccc(Nc2ncc3c(n2)-c2ccc(Cl)cc2NC(=S)C3)cn1` [Compound I-68, 2-[(6-aminopyridin-3-yl)amino]-9-chloro-5,7-dihydro-6H-pyrimido[5,4-d][1]benzazepine-6-thione], less than 5 nM.
In the case of `Cc1nc(CC2CCN(C)CC2)ccc1Nc1ncc2c(n1)-c1ccc(Cl)cc1NC(=S)C2` [Compound I-44, 9-chloro-2-({2-methyl-6-[(1-methylpiperidin-4-yl)methyl]pyridin-3-yl}amino)-5,7-dihydro-6H-pyrimido[5,4-d][1]benzazepine-6-thione] it was 5 to 25 nM.
In the case of `Cc1ncc(CCCN(C)C)cc1Nc1ncc2c(n1)-c1ccc(C3CC3)cc1NC(=S)C2` [Compound I-39, 9-cyclopropyl-2-({5-[3-(dimethylamino)propyl]-2-methylpyridin-3-yl}amino)-5,7-dihydro-6H-pyrimido[5,4-d][1]benzazepine-6-thione] it was less than 5 nM; in that of `Cc1nc(NC(=O)CN(C)C)ccc1Nc1ncc2c(n1)-c1ccc(C(F)(F)F)cc1NC(=S)C2` [Compound I-121, 2-(dimethylamino)-N-(6-methyl-5-{[6-thioxo-9-(trifluoromethyl)-6,7-dihydro-5H-pyrimido[5,4-d][1]benzazepin-2-yl]amino}pyridin-2-yl)acetamide], 5 to 25 nM; in that of `Cc1nc(N(C)CCCN(C)C)ccc1Nc1ncc2c(n1)-c1ccc(Cl)cc1NC(=S)C2` [Compound I-41, 9-chloro-2-({6-[[3-(dimethylamino)propyl](methyl)amino]-2-methylpyridin-3-yl}amino)-5,7-dihydro-6H-pyrimido[5,4-d][1]benzazepine-6-thione], 5 to 25 nM.
Regarding `CN(C)CCCc1cncc(Nc2ncc3c(n2)-c2ccc(C(F)(F)F)cc2NC(=S)C3)c1` [Compound I-32, 2-({5-[3-(dimethylamino)propyl]pyridin-3-yl}amino)-9-(trifluoromethyl)-5,7-dihydro-6H-pyrimido[5,4-d][1]benzazepine-6-thione], the IC50 is less than 5 nM.
`Cc1nc(N(C)CCN(C)C)ccc1Nc1ncc2c(n1)-c1ccc(C(F)(F)F)cc1NC(=S)C2` [Compound I-35, 2-({6-[[2-(dimethylamino)ethyl](methyl)amino]-2-methylpyridin-3-yl}amino)-9-(trifluoromethyl)-5,7-dihydro-6H-pyrimido[5,4-d][1]benzazepine-6-thione]: the IC50 was in the range of 5 to 25 nM.
In the case of `Cc1ncccc1Nc1ncc2c(n1)-c1cc(CCCN(C)C)c(Cl)cc1NC(=S)C2` [Compound I-93, 9-chloro-10-[3-(dimethylamino)propyl]-2-[(2-methylpyridin-3-yl)amino]-5,7-dihydro-6H-pyrimido[5,4-d][1]benzazepine-6-thione] it was 5 to 25 nM; in that of `S=C1Cc2cnc(Nc3cncc(CCN4CCOCC4)c3)nc2-c2ccc(Cl)cc2N1` [Compound I-78, 9-chloro-2-{[5-(2-morpholin-4-ylethyl)pyridin-3-yl]amino}-5,7-dihydro-6H-pyrimido[5,4-d][1]benzazepine-6-thione], less than 5 nM.
Take `Cc1nc(C(=O)NCCN2CCOCC2)ccc1Nc1ncc2c(n1)-c1ccc(C(F)(F)F)cc1NC(=S)C2` [Compound I-21]: the IC50 is less than 5 nM.
Then `Cc1nc2c(cc1Nc1ncc3c(n1)-c1ccc(C(F)(F)F)cc1NC(=S)C3)C[C@H](N(C)C)CC2` [Compound I-113, 2-{[(6R)-6-(dimethylamino)-2-methyl-5,6,7,8-tetrahydroquinolin-3-yl]amino}-9-(trifluoromethyl)-5,7-dihydro-6H-pyrimido[5,4-d][1]benzazepine-6-thione], with less than 5 nM; and `Cc1nc(OC2CCN(C)CC2)ccc1Nc1ncc2c(n1)-c1ccc(C(F)(F)F)cc1NC(=S)C2` [Compound I-77, 2-({2-methyl-6-[(1-methylpiperidin-4-yl)oxy]pyridin-3-yl}amino)-9-(trifluoromethyl)-5,7-dihydro-6H-pyrimido[5,4-d][1]benzazepine-6-thione], with less than 5 nM; and `Cc1ncc(CCN2CCOCC2)cc1Nc1ncc2c(n1)-c1ccc(C(F)(F)F)cc1NC(=S)C2` [Compound I-43, 2-{[2-methyl-5-(2-morpholin-4-ylethyl)pyridin-3-yl]amino}-9-(trifluoromethyl)-5,7-dihydro-6H-pyrimido[5,4-d][1]benzazepine-6-thione], with less than 5 nM.
As to `Cc1ncc(CCCN(C)C)cc1Nc1ncc2c(n1)-c1cc(CCCN(C)C)c(Cl)cc1NC(=S)C2` [Compound I-120, 9-chloro-10-[3-(dimethylamino)propyl]-2-({5-[3-(dimethylamino)propyl]-2-methylpyridin-3-yl}amino)-5,7-dihydro-6H-pyrimido[5,4-d][1]benzazepine-6-thione], the half-inhibitory concentration (IC50) was greater than 25 nM.
Then `Cc1nc(C(=O)NCCN(C)C)ccc1Nc1ncc2c(n1)-c1ccc(C(F)(F)F)cc1NC(=S)C2` [Compound I-118, N-[2-(dimethylamino)ethyl]-6-methyl-5-{[6-thioxo-9-(trifluoromethyl)-6,7-dihydro-5H-pyrimido[5,4-d][1]benzazepin-2-yl]amino}pyridine-2-carboxamide], with 5 to 25 nM; and `Cc1ncc(N2CCN(C)CC2)cc1Nc1ncc2c(n1)-c1ccc(Cl)cc1NC(=S)C2` [Compound I-103, 9-chloro-2-{[2-methyl-5-(4-methylpiperazin-1-yl)pyridin-3-yl]amino}-5,7-dihydro-6H-pyrimido[5,4-d][1]benzazepine-6-thione], with less than 5 nM.
In the case of `Cc1nc(NC2CCOCC2)ccc1Nc1ncc2c(n1)-c1ccc(C(F)(F)F)cc1NC(=S)C2` [Compound I-18, 2-{[2-methyl-6-(tetrahydro-2H-pyran-4-ylamino)pyridin-3-yl]amino}-9-(trifluoromethyl)-5,7-dihydro-6H-pyrimido[5,4-d][1]benzazepine-6-thione] it was less than 5 nM; in that of `Cc1nc(NC2CCNCC2)ccc1Nc1ncc2c(n1)-c1ccc(C(F)(F)F)cc1NC(=S)C2` [Compound I-67, 2-{[2-methyl-6-(piperidin-4-ylamino)pyridin-3-yl]amino}-9-(trifluoromethyl)-5,7-dihydro-6H-pyrimido[5,4-d][1]benzazepine-6-thione], less than 5 nM; in that of `Cc1nc(C)c(Nc2ncc3c(n2)-c2ccc(Cl)cc2NC(=S)C3)cc1CCCN(C)C` [Compound I-42, 9-chloro-2-({5-[3-(dimethylamino)propyl]-2,6-dimethylpyridin-3-yl}amino)-5,7-dihydro-6H-pyrimido[5,4-d][1]benzazepine-6-thione], less than 5 nM.

In general, IC50 refers to the midpoint of a concentration-inhibition curve.
